Results: patent US10583087B2, “Pharmaceutical composition for oral administration” (ASTELLAS PHARMA INC., priority 2015, dated 2020)
≈ marks a conversion by molar mass, not a printed value. Read-outs that look alike come from different tables or passages of the source.

Key:
[1] = Solubility of compound A in JP dissolution test fluids; type: physicochemical
[2] = Behaviour of compound A upon contact with a solvent (gelation); type: physicochemical; conditions: solvent such as water

pH dependence of solubility [1]: pH-dependent
solubility ([1]; aqueous buffer, second fluid for a dissolution test of the Japanese Pharmacopoeia, JP2 (pH 6.8), read-out: solubility in a neutral pH range): ~17.8 µg/mL (≈ 28.8 µM)
solubility ([1]; simulated gastric fluid, first fluid for a dissolution test of the Japanese Pharmacopoeia, JP1 (pH 1.2), read-out: solubility in an acidic pH range): ~44.1 µg/mL (≈ 71.3 µM)
gelation upon contact with a solvent [2]: gelled upon contact with a solvent
Structure (SMILES): CC[C@@H]1CCCN1Cc1sc(NC(=O)c2cnc(N3CCC(C(=O)O)CC3)cn2)nc1-c1ccc(OC)c(C(F)(F)F)c1 [Compound A, 1-{5-[(5-{[(2R)-2-ethylpyrrolidin-1-yl]methyl}-4-[4-methoxy-3-(trifluoromethyl)phenyl]-1,3-thiazol-2-yl)carbamoyl]pyrazin-2-yl}pyperidine-4-carboxylic acid]
